Values quoted from earlier work, collected in PMC7941644, “Identification and Development of Therapeutics for COVID-19” (ArXiv, 2021).
Like-named read-outs stand apart in the source and are kept apart here.

Columns and labels:
SARS-CoV-1 = settings: cell culture assays
COVID-19 [1] = test system: COVID-19; set-up: method as in PMID 32445440
COVID-19 [2] = test system: COVID-19
COVID-19 [3] = test system: COVID-19; set-up: method as in PMID 32275812; settings: of the 53 patients evaluated; 200 mg IV day 1, 100 mg/day for 9 days; no control group
MERS-CoV = settings: cell culture assays
COVID-19 [4] = test system: COVID-19; set-up: method as in PMID 32821939; settings: moderate COVID-19

SMILES: CCC(CC)COC(=O)[C@H](C)N[P@](=O)(OC[C@H]1O[C@@](C#N)(c2ccc3c(N)ncnn23)[C@H](O)[C@@H]1O)Oc1ccccc1 [remdesivir]
- IC50, polymerase and replication (SARS-CoV-1): submicromolar
- hazard ratio for death by 14 days (COVID-19 [1]; 95% CI 0.36 to 0.83): 0.55
- hazard ratio for death at day 29 (COVID-19 [1]; 95% CI 0.52 to 1.03): 0.73
- rate ratio for recovery (COVID-19 [1]; 95% CI 1.12 to 1.49, p < 0.001): 1.29
- serious adverse events (COVID-19 [1]; 131 of 532 patients, placebo 31.6%): 24.6%
- rate ratio for recovery (COVID-19 [1]; patients with severe disease, 95% CI 1.12 to 1.52): 1.31
- recovery period (COVID-19 [1]; patients with severe disease, versus 18): 11 days
- Kaplan-Meier estimate of mortality by 14 days (COVID-19 [1]; placebo 11.9%): 6.7%
- Kaplan-Meier estimate of mortality at day 29 (COVID-19 [1]; placebo 15.2%): 11.4%
- median recovery time (COVID-19 [1]; placebo 15 days): 10 days
- patients who died during initial hospitalization (COVID-19 [2]; 2,750 patients in remdesivir group, control 303 of 2,708): 301
- overall rate ratio for death (COVID-19 [2]; meta-analysis of Solidarity and three other remdesivir studies, p = 0.20): 0.91
- rate ratio of in-hospital death (COVID-19 [2]; vs control, no placebo): 0.95
- clinical improvement (COVID-19 [3]): 68%
- IC50, polymerase and replication (MERS-CoV): submicromolar
- effect of treatment for five days relative to standard of care (COVID-19 [4]): small effect of treatment
